Consider one compound from patent EP1343508B1, “USE OF AN OESTROGEN IN THE MANUFACTURE OF A COMPOSITION CONTAINING OESTROGEN FOR THE TREATMENT OF ATROPHIC VAGINITIS” (Novo Nordisk Femcare AG, priority 2000, dated 2002).

“And” between values parts separate entries of the source, which are not always exact repeats. Equal values may be shown once. Marks after values point to notes of the source that are not given here.

For this assay, the system named is vaginal mucosal cells. The assay is described as follows: Maturation value of vaginal mucosal cells, Example 2. The class given is in vivo, postmenopausal women. As to the method: Maturation values of vaginal mucosal cells were assessed as an indicator of changes in the condition of the vaginal mucosa in response to treatment.
After the screening visit, patients received no study treatment during the 4-week run-in period prior to the baseline visit. […] The vaginal tablets were identical in appearance. Patients inserted 1 tablet intravaginally, once daily for the initial 2 weeks of the study and then twice per week (Sunday and Thursday) for the remaining 10 weeks. Patients were instructed to use their medication at a consistent time each day, preferably in the morning.
Upon presentation to the clinic for each visit, a vaginal cytology specimen was obtained. Patients then inserted the tablets. […] The blood samples obtained at 30 minutes before insertion, and at 6, 12, and 24 hours after insertion were also used to determine the FSH concentration via immunoradiometric assay. […]

`C[C@]12CC[C@@H]3c4ccc(O)cc4CC[C@H]3[C@@H]1CC[C@@H]2O` [E2, 17β-estradiol]: the “maturation value, Mean ± SD” value (10 µg E2, Week 0 (baseline)) is 51.0 and 51.0 ± 6.2. Where the note is “10 µg E2, Week 12”, the “maturation value, Mean change ± SD from baseline” value is given as 11.2 ± 17.8^b; the “maturation value, Mean ± SD” value amounted to 62.2 ± 15.7; the “patients with increases in maturation values from baseline” value is recorded as 14 patients; the “percentage of patients with increases in maturation values from baseline” value is reported as 64%. For the setting “25 µg E2, Week 0 (baseline)”, the “maturation value, Mean ± SD” value is 52.4 and 53.4 and 52.4 ± 7.1. Further, for the setting “25 µg E2, Week 12”, the “maturation value, Mean change ± SD from baseline” value is reported as 7.0 ± 8.7^b; the “maturation value, Mean ± SD” value is reported as 58.4 ± 7.5; the “patients with increases in maturation values from baseline” value is given as 13 patients; the “percentage of patients with increases in maturation values from baseline” value turned out to be 68%.
